Data taken from ChEMBL document CHEMBL1201862, “PubChem BioAssay data set” (2004).
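Each compound was tested at five concentrations against cells in 96-well plates for 48 hours. Abbreviation: GI50, concentration required for 50% inhibition of growth.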 The source made the active and inactive calls. Cut-off read from the data, not from the text of the source: active = GI50 up to about 1.1 µM and inactive = higher.

Assays:
Assay in all cases: DTP human tumour cell line panel, 48 h
PC-3 = tested on: PC-3
DU-145 = tested on: DU-145
HOP-92 = tested on: HOP-92
MCF7 = tested on: MCF7
M14 = tested on: M14
MDA-MB-435 = tested on: MDA-MB-435
RPMI-8226 = tested on: RPMI-8226
SK-MEL-28 = tested on: SK-MEL-28
SF-539 = tested on: SF-539
MOLT-4 = tested on: MOLT-4
NCI-H522 = tested on: NCI-H522
U-251 = tested on: U-251
OVCAR-4 = tested on: OVCAR-4
NCI-H23 = tested on: NCI-H23
RXF 393 = tested on: RXF 393
SW-620 = tested on: SW-620
SK-MEL-5 = tested on: SK-MEL-5
SK-OV-3 = tested on: SK-OV-3
UO-31 = tested on: UO-31
SR = tested on: SR

Row | Structure (SMILES) | GI50 (PC-3) | GI50 (DU-145) | GI50 (HOP-92) | GI50 (MCF7) | GI50 (M14) | GI50 (MDA-MB-435) | GI50 (RPMI-8226) | GI50 (SK-MEL-28) | GI50 (SF-539) | GI50 (MOLT-4) | GI50 (NCI-H522) | GI50 (U-251) | GI50 (OVCAR-4) | GI50 (NCI-H23) | GI50 (RXF 393) | GI50 (SW-620) | GI50 (SK-MEL-5) | GI50 (SK-OV-3) | GI50 (UO-31) | GI50 (SR)
1 | CCc1c(C)c(C#N)c(=S)n(C2OC(COC(C)=O)C(OC(C)=O)C(OC(C)=O)C2OC(C)=O)c1-c1ccccc1 (stereo not given) | > 10 µM (inactive) | > 31.6 µM (inactive) | 22.1 µM (inactive) | > 31.6 µM (inactive) | > 31.6 µM (inactive) | > 31.6 µM (inactive) | 82 µM (inactive) | > 31.6 µM (inactive) | 23.6 µM (inactive) | > 31.6 µM (inactive) | 26.1 µM (inactive) | 17.3 µM (inactive) | > 31.5 µM (inactive) | > 31.6 µM (inactive) | > 10 µM (inactive) | > 100 µM (inactive) | > 31.6 µM (inactive) | > 10 µM (inactive) | > 24.6 µM (inactive) | > 31600 nM (inactive)
2 | CC(=O)Nc1ccc2c3c(cc(O)c2c1)N(C(=O)CCCCCCC(=O)Nc1ccc2c4c(cc(O)c2c1)N(C(=O)OC(C)(C)C)CC4CCl)CC3CCl (stereo not given) | 0.105 µM (active) | 0.0211 µM (active) | 0.158 µM (active) | < 0.01 µM (active) | 0.0791 µM (active) | 0.132 µM (active) | 0.0877 µM (active) | 0.279 µM (active) | 0.0637 µM (active) | < 0.01 µM (active) | 0.0387 µM (active) | 0.0205 µM (active) | 0.218 µM (active) | 0.0337 µM (active) | 0.016 µM (active) | 0.0968 µM (active) | 0.0217 µM (active) | 0.0705 µM (active) | 1.04 µM (active) | < 10 nM (active)
3 | O=C(/C=C/c1ccsc1)c1ccco1 | 14.6 µM (inactive) | 13.6 µM (inactive) | 14.9 µM (inactive) | 2.21 µM (inactive) | 11.2 µM (inactive) | 20 µM (inactive) | 3.52 µM (inactive) | 12.8 µM (inactive) | 14.4 µM (inactive) | 4.34 µM (inactive) | 1.76 µM (inactive) | 7.67 µM (inactive) | 5.24 µM (inactive) | 14.2 µM (inactive) | 13.3 µM (inactive) | 7.55 µM (inactive) | 15.4 µM (inactive) | 18.5 µM (inactive) | 8.87 µM (inactive) | 2280 nM (inactive)
4 | COc1cc(C2c3[nH]c4ccccc4c3[C@@H](Nc3ccc(C#N)cc3)[C@H]3COC(=O)N23)cc(OC)c1O (stereo not given in full) | 0.462 µM (active) | 0.252 µM (active) | 0.413 µM (active) | 0.16 µM (active) | 0.344 µM (active) | 0.388 µM (active) | 0.144 µM (active) | 0.395 µM (active) | 0.0618 µM (active) | 0.0188 µM (active) | 0.175 µM (active) | 0.175 µM (active) | 1.84 µM (inactive) | 0.238 µM (active) | 1.16 µM (inactive) | 0.122 µM (active) | 0.132 µM (active) | 0.254 µM (active) | 0.802 µM (active) | 11.3 nM (active)
5 | COc1cccc2c1C(=O)c1c(O)c3c(c(O)c1C2=O)C[C@@](O)(C(=O)CO)C[C@@H]3OC1CC(N2CCOCC2C#N)C(O)C(C)O1 (stereo not given in full) | 0.000107 µM (active) | 4.15e-05 µM (active) | 9.53e-05 µM (active) | 0.0025 µM (active) | 5.42e-05 µM (active) | 7.4e-05 µM (active) | 3.01e-05 µM (active) | 9.73e-05 µM (active) | 2.41e-05 µM (active) | 1.83e-05 µM (active) | 3.05e-05 µM (active) | 3.01e-05 µM (active) | 2.18e-05 µM (active) | 2.45e-05 µM (active) | 1.91e-05 µM (active) | 7.23e-05 µM (active) | 3.72e-05 µM (active) | 0.000124 µM (active) | 5.52e-05 µM (active) | 0.0127 nM (active)
6 | O=C(O)c1ccc2c(c1)CC1(C2)Cc2ccccc2C1=O (stereo not given) | > 100 µM (inactive) | > 100 µM (inactive) | 25.2 µM (inactive) | > 100 µM (inactive) | 51.8 µM (inactive) | > 100 µM (inactive) | > 100 µM (inactive) | > 100 µM (inactive) | > 100 µM (inactive) | > 100 µM (inactive) | > 100 µM (inactive) | > 100 µM (inactive) | > 100 µM (inactive) | > 100 µM (inactive) | > 100 µM (inactive) | > 100 µM (inactive) | > 100 µM (inactive) | > 100 µM (inactive) | > 100 µM (inactive) | > 100000 nM (inactive)
7 | CN(CCNC(=O)c1n[nH]c2c1ccc1ccccc12)CCNC(=O)c1n[nH]c2c1ccc1ccccc12 | 2.49 µM (inactive) | 2.49 µM (inactive) | 3.29 µM (inactive) | 1.87 µM (inactive) | 1.82 µM (inactive) | 1.79 µM (inactive) | 2.18 µM (inactive) | 1.93 µM (inactive) | 1.79 µM (inactive) | 2.77 µM (inactive) | 1.95 µM (inactive) | 1.93 µM (inactive) | 1.82 µM (inactive) | 1.96 µM (inactive) | 1.94 µM (inactive) | 1.84 µM (inactive) | 1.71 µM (inactive) | 4.79 µM (inactive) | 7.35 µM (inactive) | 1780 nM (inactive)
8 | COC(=O)C(CCC1C=CCC1)/N=C\c1ccccc1 (stereo not given) | 35.6 µM (inactive) | 97.9 µM (inactive) | 67 µM (inactive) | 46.8 µM (inactive) | 46.2 µM (inactive) | 60.3 µM (inactive) | 24.5 µM (inactive) | > 100 µM (inactive) | > 100 µM (inactive) | 33.8 µM (inactive) | 54.2 µM (inactive) | 52.1 µM (inactive) | 54.7 µM (inactive) | 52.6 µM (inactive) | 58.5 µM (inactive) | > 100 µM (inactive) | 32.1 µM (inactive) | > 100 µM (inactive) | 51.9 µM (inactive) | 38300 nM (inactive)
9 | Cc1c2cc[n+]([O-])cc2c(C)c2c1[nH]c1ccccc12 | 5.04 µM (inactive) | 8.73 µM (inactive) | 10.2 µM (inactive) | 1.21 µM (inactive) | 7.1 µM (inactive) | 6.61 µM (inactive) | 6.19 µM (inactive) | 37.8 µM (inactive) | 2.99 µM (inactive) | 0.998 µM (active) | 5.97 µM (inactive) | 3.76 µM (inactive) | 9.95 µM (inactive) | 6.04 µM (inactive) | 6.73 µM (inactive) | 1.87 µM (inactive) | 6.85 µM (inactive) | 10.8 µM (inactive) | 5.47 µM (inactive) | 1290 nM (inactive)
10 | CCOC(=O)c1c2c(n(C)c1-c1ccccc1)C(=O)C(C)=CC2=O | 11.4 µM (inactive) | 17.5 µM (inactive) | 2.07 µM (inactive) | 2.37 µM (inactive) | 3.66 µM (inactive) | 1.91 µM (inactive) | 1.9 µM (inactive) | 13.9 µM (inactive) | 4.05 µM (inactive) | 2.55 µM (inactive) | 1.69 µM (inactive) | 7.8 µM (inactive) | 7.05 µM (inactive) | 11.6 µM (inactive) | 8.97 µM (inactive) | 4.06 µM (inactive) | 9.62 µM (inactive) | 16.7 µM (inactive) | 12.2 µM (inactive) | 1910 nM (inactive)
11 | Cc1oc2nc(N(C)C)n3cnnc3c2c1C | > 100 µM (inactive) | > 100 µM (inactive) | > 100 µM (inactive) | > 100 µM (inactive) | > 100 µM (inactive) | > 100 µM (inactive) | > 100 µM (inactive) | > 100 µM (inactive) | > 100 µM (inactive) | > 100 µM (inactive) | > 100 µM (inactive) | > 100 µM (inactive) | > 100 µM (inactive) | > 100 µM (inactive) | > 100 µM (inactive) | > 100 µM (inactive) | > 100 µM (inactive) | > 100 µM (inactive) | > 100 µM (inactive) | > 100000 nM (inactive)
12 | CCCCCCC(=O)OC[n+]1ccc2c(C)c3[nH]c4ccc(OC)cc4c3c(C)c2c1 | 0.246 µM (active) | 0.55 µM (active) | 1.18 µM (inactive) | 0.214 µM (active) | 0.703 µM (active) | 0.454 µM (active) | 0.0548 µM (active) | 1.29 µM (inactive) | 0.299 µM (active) | 0.0378 µM (active) | 0.303 µM (active) | 0.282 µM (active) | 0.679 µM (active) | 0.329 µM (active) | 0.247 µM (active) | 0.0628 µM (active) | 1.16 µM (inactive) | 0.585 µM (active) | 0.83 µM (active) | 48.6 nM (active)
13 | Cc1ccc2nc(C(C)C)c(=O)[nH]c2c1 | 19.9 µM (inactive) | > 100 µM (inactive) | > 100 µM (inactive) | > 100 µM (inactive) | > 100 µM (inactive) | > 100 µM (inactive) | > 100 µM (inactive) | > 100 µM (inactive) | 85.1 µM (inactive) | > 100 µM (inactive) | 82.8 µM (inactive) | 47 µM (inactive) | 71.9 µM (inactive) | > 100 µM (inactive) | 93.1 µM (inactive) | > 100 µM (inactive) | > 100 µM (inactive) | > 100 µM (inactive) | > 100 µM (inactive) | > 100000 nM (inactive)
14 | Cc1cc(C)n(CN(Cn2nc(C)cc2C)c2ccccc2)n1 | 27.8 µM (inactive) | 30.3 µM (inactive) | 33.5 µM (inactive) | 23.1 µM (inactive) | 16.3 µM (inactive) | 13.7 µM (inactive) | 18.4 µM (inactive) | 19.6 µM (inactive) | 19.4 µM (inactive) | 10.5 µM (inactive) | 23.2 µM (inactive) | 17.8 µM (inactive) | 20.3 µM (inactive) | 18.1 µM (inactive) | 19.3 µM (inactive) | 18.2 µM (inactive) | 20.4 µM (inactive) | 40.9 µM (inactive) | 21.7 µM (inactive) | 217 nM (active)
